Results on ten molecules are retold here after ChEMBL document CHEMBL1122514, “Studies on synthesis and anticancer activity of selected N-(2-fluoroethyl)-N-nitrosoureas” (1984).

For assay [1], the species on record is Mus musculus. Briefly: Number of day-60 survivors; 0/10. The class given is functional.
In assay [2] the test system is Mus musculus. Briefly: Compound is evaluated for antitumor activity against intraperitoneally implanted B16 melanoma cells in mice median survival time including day-60 survivors (MST). The class given is functional.
The test system of assay [3] is Mus musculus. Briefly: Median survival time including day-60 survivors (MST), after post implantation at the optimal dose of 20 mg/kg; d=Not attained. The class given is functional, organism-based. More on the design: dose 20 mg/kg.
Assay [4] concerns Mus musculus. Briefly: Number of day-60 survivors at the optimal dose of 20 mg/kg; 6/10. The class given is functional.
For assay [5], the species on record is Mus musculus. Briefly: Number of day-60 survivors; 3/10. Type of assay: functional.
For assay [6], the species on record is Mus musculus. Briefly: (§1) Optimal percentage of increased life span [(100 x MST treated mice / MST control mice) -100]. The class given is functional.
Assay [7] concerns Mus musculus. Briefly: Optimal percentage of increased life span [(100 x MST treated mice / MST control mice) -100] at the optimal dose of 20 mg/kg; d=Not Attained. Type of assay: functional, organism-based. On the set-up: dose 20 mg/kg.
Assay [8] concerns Mus musculus. Briefly: Compound is evaluated for maximally tolerated dose (MTD) against intraperitoneally implanted B16 melanoma cells in mice. Type of assay: functional.
The test system of assay [9] is Mus musculus. Briefly: Number of day-60 survivors at the optimal dose of 5 mg/kg; 3/10. The class given is functional.
Assay [10] has as its system Mus musculus. Briefly: median survival time including day-60 survivors (MST), after post implantation at the optimal dose of 5 mg/kg. The class given is functional.
The test system of assay [11] is Mus musculus. Briefly: Optimal percentage of increased life span [(100 x MST treated mice / MST control mice) -100] at the optimal dose of 5 mg/kg. Type of assay: functional.
The species entered for assay [12] is Mus musculus. Briefly: optimal percentage of increased life span [(100 x MST treated mice / MST control mice) -100]. The class given is functional.
Assay [13] concerns Mus musculus. Briefly: Number of day-60 survivors at the optimal dose of 10 mg/kg; 7/10. The class given is functional.
Assay [14] deals with Mus musculus. Briefly: Median survival time including day-60 survivors (MST), after post implantation at the optimal dose of 10 mg/kg; d=Not attained. Type of assay: functional, organism-based. More on the design: dose 10 mg/kg.
Assay [15] deals with Mus musculus. Briefly: Optimal percentage of increased life span [(100 x MST treated mice / MST control mice) -100] at the optimal dose of 10 mg/kg; d=Not Attained. The class given is functional, organism-based. On the set-up: dose 10 mg/kg.
For assay [16], the system named is Mus musculus. Briefly: Compound is evaluated for antitumor activity against intraperitoneally implanted B16 melanoma cells in mice median survival time including day-60 survivors (MST); f=Not attained. The class given is functional, organism-based.
For assay [17], the species on record is Mus musculus. Briefly: Number of day-60 survivors; 5/10. The class given is functional.
The species entered for assay [18] is Mus musculus. Briefly: Number of day-60 survivors; 4/10. The class given is functional.
The species entered for assay [19] is Mus musculus. Briefly: Optimal percentage of increased life span [(100 x MST treated mice / MST control mice) -100]; f=Not Attained. Type of assay: functional, organism-based.
The test system of assay [20] is Mus musculus. Briefly: Number of day-60 survivors at the optimal dose of 6.25 mg/kg; 9/10. The class given is functional.
The subject of assay [21] is Mus musculus. Briefly: Median survival time including day-60 survivors (MST), after post implantation at the optimal dose of 6.25 mg/kg; d=Not attained. The class given is functional, organism-based. More on the design: dose 6.25 mg/kg.
Assay [22] relates to Mus musculus. Briefly: Optimal percentage of increased life span [(100 x MST treated mice / MST control mice) -100] at the optimal dose of 6.25 mg/kg; d=Not Attained. More on the design: dose 6.25 mg/kg. Type of assay: functional, organism-based.
For assay [23], the species on record is Mus musculus. Briefly: Number of day-60 survivors; 1/10. Type of assay: functional.
The test system of assay [24] is Mus musculus. Briefly: Number of day-60 survivors at the optimal dose of 20 mg/kg; 9/10. Type of assay: functional.
The subject of assay [25] is Mus musculus. Briefly: Median survival time including day-60 survivors (MST), after post implantation at the optimal dose of 5 mg/kg. The class given is functional.
The test system of assay [26] is Mus musculus. Briefly: median survival time including day-60 survivors (MST), after post implantation at the optimal dose of 8 mg/kg; d=Not Attained. More on the design: dose 8 mg/kg. The class given is functional, organism-based.
Assay [27] concerns Mus musculus. Briefly: Number of day-60 survivors at the optimal dose of 8 mg/kg; 8/10. Type of assay: functional.
The subject of assay [28] is Mus musculus. Briefly: Optimal percentage of increased life span [(100 x MST treated mice / MST control mice) -100] at the optimal dose of 8 mg/kg; d=Not Attained. Type of assay: functional, organism-based. More on the design: dose 8 mg/kg.
Assay [29] relates to Mus musculus. Briefly: Number of day-60 survivors at the optimal dose of 20 mg/kg; 3/10. The class given is functional.
The test system of assay [30] is Mus musculus. Briefly: median survival time including day-60 survivors (MST), after post implantation at the optimal dose of 20 mg/kg. Type of assay: functional.
For assay [31], the system named is Mus musculus. Briefly: Optimal percentage of increased life span [(100 x MST treated mice / MST control mice) -100] at the optimal dose of 20 mg/kg. Type of assay: functional.
For assay [32], the species on record is Mus musculus. Described as §1. The class given is functional. This is another data set of the same source.
Assay [33] is filed under the species Mus musculus. Briefly: Number of day-60 survivors; 2/10. Type of assay: functional.
In assay [34] the test system is Mus musculus. Briefly: median survival time including day-60 survivors (MST), after post implantation at the optimal dose of 32 mg/kg. The class given is functional.
Assay [35] concerns Mus musculus. Briefly: Number of day-60 survivors at the optimal dose of 32 mg/kg; 1/10. The class given is functional.
Assay [36] deals with Mus musculus. Briefly: Optimal percentage of increased life span [(100 x MST treated mice / MST control mice) -100] at the optimal dose of 32 mg/kg. The class given is functional.

Several values for one entry are separate records, joined by “and”; a condition that tells them apart may be missing. Equal values may be shown once.

As for `O=NN(CCF)C(=O)NC1CCCCC1O` (centres undefined), the Survivors in the assay filed under Mus musculus [1] is given as 0; in the assay with Mus musculus [4], 6; in the assay listed under Mus musculus [5], 3. For the same molecule, the MST in the assay with Mus musculus [2] was 48 days and 35.8 days; with Mus musculus [3] it was “Not attained”. Besides, the ILS in the assay listed under Mus musculus [6] is 122% and 109%; in the assay on Mus musculus [7] it was “Not attained”. The MTD in the assay on Mus musculus [8] was 60 mg/kg.
Take `O=NN(CCCl)C(=O)NC1C(O)CCCC1O` (centres undefined): the Survivors with Mus musculus [9] is reported as 3. In the assay on Mus musculus [10], this molecule returned an MST of 33.3 days. This molecule returned an ILS at 5 mg/kg in the assay with Mus musculus [11] of 73%.
`O=NN(CCF)C(=O)NC1C(O)CCCC1O` (centres undefined): the results for the ILS in the assay filed under Mus musculus [12], in the assay with Mus musculus [15] and in the assay listed under Mus musculus [19] were 163%, “Not attained” and “Not attained”, respectively. Also, the MST with Mus musculus [2] was 57 days; in the assay with Mus musculus [14], “Not attained”; with Mus musculus [16], “Not attained”. The Survivors in the assay on Mus musculus [13] is listed as 7; in the assay filed under Mus musculus [17], 5; in the assay listed under Mus musculus [18], 4. This molecule also registered a maximal tolerated dose (MTD) in the assay with Mus musculus [8] of 60 mg/kg.
For `O=NN(CCCl)C(=O)NCCO` [ELMUSTINE], in the assay with Mus musculus [20], the Survivors is reported as 9. The MST result in the assay on Mus musculus [21] was “Not attained”. In the assay on Mus musculus [22], the ILS entry is “Not attained”.
Regarding `O=NN(CCF)C(=O)NC1CCC(=O)NC1=O` (centres undefined), the MST in the assay with Mus musculus [2] is 45.3 days and 40.3 days; in the assay with Mus musculus [3], “Not attained”. For the same molecule, the Survivors stood at 1 in the assay filed under Mus musculus [23], 3 in the assay listed under Mus musculus [5] and 9 with Mus musculus [24]. Also, the increase in lifespan (ILS) is 109% and 133% in the assay listed under Mus musculus [6]; “Not attained” in the assay with Mus musculus [7]. This molecule also gave an MTD in the assay on Mus musculus [8] of 60 mg/kg.
In the case of `O=NN(CCF)C(=O)NCCO`, the increase in lifespan (ILS) in the assay listed under Mus musculus [12] worked out at 131%; in the assay filed under Mus musculus [6] it was 150%. Besides, the MST is 50 days and 42.8 days in the assay on Mus musculus [2]; 45.8 days in the assay with Mus musculus [25]. Also, the Survivors with Mus musculus [9] and in the assay listed under Mus musculus [5] was 3 throughout. The ILS at 5 mg/kg in the assay with Mus musculus [11] turned out to be 138%. Moreover, the MTD with Mus musculus [8] was determined as 60 mg/kg.
Take `O=NN(CCCl)C(=O)NC1CCC(=O)NC1=O` (centres undefined): in the assay on Mus musculus [26], the MST result is “Not attained”. Moreover, the Survivors with Mus musculus [27] is 8. For the same molecule, the ILS entry with Mus musculus [28] is “Not attained”.
`O=NN(CCF)C(=O)NC1CCCCC1`: the MST in the assay with Mus musculus [2] was 37 days; with Mus musculus [30] it was 44 days. Further, the Survivors in the assay with Mus musculus [29] is on record as 3; in the assay listed under Mus musculus [23], 1. Further, in the assay on Mus musculus [31], the ILS at 20 mg/kg worked out at 129%. The molecule also gave an ILS in the assay filed under Mus musculus [6] of 71%. This molecule registered an MTD with Mus musculus [8] of 60 mg/kg.
As for `O=NN(CCF)C(=O)NC1C(O)C(O)OC(CO)C1O` (centres undefined), the MST with Mus musculus [2] is 50 days and 36 days. For the same molecule, the figures for the ILS in the assay listed under Mus musculus [32] and in the assay listed under Mus musculus [6] were 131% and 110%, respectively. Moreover, the Survivors in the assay filed under Mus musculus [5] was found to be 3; in the assay listed under Mus musculus [33] it was 2. The molecule also showed a maximum tolerated dose (MTD) with Mus musculus [8] of 60 mg/kg.
In the assay with Mus musculus [34], `O=NN(CCCl)C(=O)NC1CCCCC1` [LOMUSTINE] showed an MST of 32 days. The molecule also registered a Survivors with Mus musculus [35] of 1. Moreover, the increase in life span (ILS) at 32 mg/kg with Mus musculus [36] came out at 66%.
